From US20220031690A1, “ANTI-NEURODEGENERATIVE DISEASE AGENT” (Hayashibara Co., Ltd., priority 2018, published 2022)

What was measured:
PC12-HS cells = assay: Evaluation method A: neurocyte growth acceleration activity (Alamar blue); assay type: cell-based, rat; conditions: for Cell proliferation rate (%): negative control = 100%; for Action on PC12-HS growth acceleration (50 ng/ml): 3 days culture, class of cell proliferation rate vs negative control = 100%; for neurocyte growth acceleration activity (in words): 40, 200 and 1,000 nM, comment on Table 2; for cytotoxicity to PC12-HS cells: concentration range tested
Excerpt: As a model of the nerve cell, the NGF (nerve growth factor) highly sensitive strain of PC12 cell derived from the rat adrenal pheochromocytoma (hereinafter referred to as “PC12-HS cell”; JCRB cell bank, National Research and Development Institute of Health and Nutrition), which has been widely used as a suitable model for research on human neurodegenerative disease, was used. As the test compound, […] of trimethine cyanine dye compounds; NK-5 (Chemical formula 2), NK-36 (Chemical formula 3), NK-44 (Chemical formula 5) and dye compounds represented by Chemical formulae 12 to 18, and NK-6 (Chemical formula 7), which is a monomethine cyanine dye, were selected. In addition, two kinds of ethylene cross-linked dyes (Chemical formulae 19 and 20), 15 kinds of monomethine cyanine dyes (Chemical formulae 21 to 35), and seven kinds of trimethine cyanine dyes (Chemical formulae 36 to 42), which were expected to have a good neurocyte growth acceleration activity and/or neurite-outgrowth promoting activity in the screening disclosed in Patent literature 6, were also re-evaluated for comparison. The Chemical formulae 12 to 42 are shown below.
The cyanine dye compounds subjected to the test (purity 97% by mass or more, synthesized by Hayashibara Co., Ltd., Okayama, Japan) were individually dissolved in DMSO (product number “D8418”, commercialized by SIGMA Corporation) at a concentration of 5 mg/ml, and the solutions were then filtered through DMSO-resistant membrane (“Millex-LGS LLG025SS”, commercialized by Millipore Corporation) and stored at 25° C. in a dark condition. At the time of use, they were further diluted with Dulbecco's Medium (hereinafter, abbreviated as “D-MEM medium”, commercialized by Nissui Pharmaceutical Co., Ltd.) supplemented by 10% by volume of fetal bovine serum (FBS), and subjected to the test.
PC12-HS cells were subjected to tests after frozen stock cultured cells were thawed and cultured with a D-MEM medium supplemented with 10% by volume of FBS (Hereinafter, when the term “culture” is simply used, it means that the cells are statically cultured in an incubator controlled at 37° C. under 5% by volume of CO2 conditions). Cells used in the test were collected using 0.25% by weight of trypsin solution, then diluted with a D-MEM medium supplemented with 10% by volume of FBS (hereinafter referred to as “culture medium”), seeded into collagen-coated 96-well plates (commercialized by Falcon, Tokyo, Japan, “Microtest Plate, Cell Culture, Flat Bottom”) to obtain 5×10^3 cells/100 μl/well, and cultured for 24 hours (hereinafter referred to as “pre-culture”). Then, the above test samples were diluted with a culture medium, and 100 μl of diluted solution of the test compounds were added to each well so that the final concentration of the test compounds in the wells became 50 ng/ml, and the cells were cultured for another three days. On day 3, the cultures supernatant was removed from each well, 200 μl of culture medium containing 10% by volume of Alamar blue reagents (commercialized by Trek Diagnostic Systems Inc., Ohio, USA) were added to each well, and the cells were cultured for 6 hours. After culturing for 6 hours, the cells were measured for fluorescent intensity at a wavelength of 544-590 nm by “FlexStation 3”, a product name of a fluorescent plate reader (commercialized by Japan Molecular Devices Corporation, Tokyo, Japan). […] Measurements were performed for each test compound in triplicate, and the mean values were shown.
The method was based on Experiment 1-1, except the concentrations of the test compounds were set to three doses of 40 nM, 200 nM and 1,000 nM for evaluation method A (neurocyte growth accelerating effect), and two doses of 200 nM and 1,000 nM for evaluation method B (neurite outgrowth promoting effect). […]

[1] = Superoxide scavenging ability (hypoxanthine/xanthine oxidase, ESR); assay type: biochemical
Experimental: In this experiment, superoxide generated by reacting hypoxanthine with xanthine oxidase was captured by 5,5-dimethyl-4-phenyl-1-pyrroline N-oxide (hereinafter referred to as “4PDMPO”) as a spin trapping agent, and SOD-like activity by the test compound was measured by ESR.
Specifically, A 50 μl of aqueous solution of hypoxanthine (commercialized by Fuji Film Wako Pure Chemical Industries, Ltd., Tokyo, Japan) prepared to 1 mM was added to a glass test tube. […] The ESR spectrum of the reaction mixture was measured 40 seconds after the addition of xanthine oxidase, and the radical scavenging ability of the test compound was shown as its relative percentage thereof, with the case where no dye compound was added as the radical intensity of 100%. Measurements were performed in triplicate for each of the concentrations of each test compound, and the IC50 was calculated using the average value thereof and shown in Table 6. […]
A reaction solution for measuring various radicals was placed in a flat quartz cell for ESR, and the ESR spectrum was measured by an ESR device (commercialized by JEOL Ltd., trade name “Free radical Controller JES-FR30”). […] The peak height of the ESR spectrum corresponding to each radical at this time was set as 100, and the relative intensity when the solution was added and reacted was obtained and expressed as the radical residual rate (%). […]

[2] = Hydroxyl radical scavenging ability (Fenton reaction, ESR); assay type: biochemical; conditions: 4PDMPO spin trap
Experimental: In this experiment, hydroxyl radicals generating from diethylenetriamine-N, N, N′, N″-pentaacetic acid (DTPA) by Fenton reaction were trapped with 4PDMPO and measured by ESRs.
Specifically, each of the dye compounds dissolved in DMSO was diluted with purified water to obtain a test compound solution. To a glass test tube, 50 μl of 1 mM hydrogen peroxide solution and 50 μl of 356 mM 4PDMPO were added, followed by 50 μl of the test compound solution. Then, 50 μl of an aqueous solution containing 1 mM FeSO4 and 1 mM DTPA (commercialized by Fuji Film Wako Pure Chemical Industries, Ltd.) was added thereto, mixed with a vortex mixer for 10 seconds, and then reacted for exactly 40 seconds, and the reaction solution was used for ESR measurement. […]
(§1) Detailed conditions of the ESR measurement are described in this section. A reaction solution for measuring various radicals was placed in a flat quartz cell for ESR, and the ESR spectrum was measured by an ESR device (commercialized by JEOL Ltd., trade name “Free radical Controller JES-FR30”). […] The peak height of the ESR spectrum corresponding to each radical at this time was set as 100, and the relative intensity when the solution was added and reacted was obtained and expressed as the radical residual rate (%). […]

[3] = Peroxyl radical scavenging ability (AAPH, ESR); assay type: biochemical; conditions: DMPO spin trap, AAPH 37° C.
Experimental: Since the peroxyl radical generated by heating of 2,2′-azobis (2-aminodipropane) dihydrochloride (hereinafter referred to as “AAPH”) is a model of biologically derived radicals, in this experiment, the ability of the test compound to scavenge the peroxyl radical was measured by ESR.
Specifically, each of the dye compounds dissolved in DMSO was diluted with 0.1 M phosphate buffer to prepare a test compound solution. […] Measurements were performed in triplicate for each of the concentrations of each test compound, and the IC50 was calculated using the mean value thereof and shown in Table 6.
as §1

[4] = Solubility in distilled water and ethanol (absorbance method); assay type: physicochemical
Experimental: A test sample solution, prepared by dissolving each test compound in DMSO to give a concentration of 5 mg/mL, was diluted with 70% (v/v) acetonitrile aqueous solution, and the absorption spectrum at the wavelength range of 400 nm to 900 nm is measured by a spectrophotometer (“FLEX STATION 3”, manufactured by Molecular Devices Japan, Tokyo, Japan). The maximum absorption wavelength of each test compound was determined, then the correlation equation between the absorbance and the concentration at the wavelength was calculated to prepare a calibration curve, and then the following quantitative test was carried out. […] The solubility of each dye compound was measured as follows with reference to the method described in the Japanese Pharmacopoeia. […] After 30 min, 1 mL of the mixture was sampled at 3 times from each test solution, centrifuged at 18,400×g for 5 min, 0.3 mL of the supernatant was collected and admixed with 0.7 mL of acetonitrile to make a total volume of 1.0 mL. Then, the absorbance was measured at the maximum absorption wavelength corresponding to each of the dyes described above, and the concentration of dye was calculated from the calibration curve.

[5] = DPPH radical scavenging ability (absorbance method); assay type: biochemical
Excerpt: 2,2-Diphenyl-1-picrylhydrazyl (hereinafter referred to as “DPPH”) is a radical with an unpaired electron and has the oxidizing ability of other substances. In addition, because it is stable and easy to handle, it is widely used as an artificial radical-like substance for measuring the antioxidant ability of antioxidants. When DPPH reacts with a substance having antioxidant ability, it loses its own oxidizing ability and its color changes from deep purple to […].
DPPH (commercialized by Tokyo Kasei Kogyo Co., Ltd., Tokyo, Japan) was dissolved in ethanol to prepare a 167 μM DPPH ethanol solution, and 90 μl of the solution was added to each well of the 96-well microplate. A 60 μl each of the test compound serially diluted with ethanol was added to the DPPH ethanol solution, and the mixture was reacted at room temperature for 2 hours, and then the absorbance at 490 nm was measured. […] From those value, the 50% inhibitory concentration of the DPPH radical (Hereinafter, it is referred to as “IC50”) was calculated.

Row | SMILES | Cell proliferation rate (%) (PC12-HS cells; 1.000 nM) | Cell proliferation rate (%) (PC12-HS cells; 40 nM) | Action on PC12-HS growth acceleration (50 ng/ml) (PC12-HS cells) | Cell proliferation rate (%) (PC12-HS cells; 200 nM) | neurocyte growth acceleration activity (in words) (PC12-HS cells) | cytotoxicity to PC12-HS cells (PC12-HS cells) | superoxide radical scavenging ability relative to NK-4 (comparison of IC50 values) [1] | IC50 ([1]; ESR, 4PDMPO spin trap, read-out: IC50 superoxide radical) | IC50 [2] | IC50 [3] | Solubility Dictilled water ([4]; distilled water, room temperature, 30 min) | Solubility Ethanol ([4]; ethanol) | relative DPPH radical scavenging activity based on the IC50 value, relative to NK-4 [5] | IC50 ([5]; ethanol, room temperature, 2 hours, absorbance at 490 nm) | cell proliferation relative to the negative control (PC12-HS cells; 40 nM)
1 | CCN1C=CC(=Cc2cc[n+](CC)c3ccccc23)c2ccccc21.[I-] [NK-6] | 141.9% | 105.0% | ◯ (the relative value of 130% to 169% was judged to be equivalent to NK-4 (“circle”)) | 117.0% | slightly weaker than that of NK-4 | do not show cytotoxicity | more than twice that of NK-4 | 69 µM | 62 µM | 43 µM | 93 µg/mL | 645 µg/mL | about 2 times | 380 µM | –
2 | CCN1C=CC(=CC=Cc2cc[n+](CC)c3ccccc23)c2ccccc21.[Br-] [NK-36] | 137.2% | 123.0% | ◯ (the relative value of 130% to 169% was judged to be equivalent to NK-4 (“circle”)) | 115.5% | slightly weaker than that of NK-4 | do not show cytotoxicity | – | – | – | – | – | – | – | – | –
3 | CCCCN1C=CC(=CC=Cc2cc[n+](CCCC)c3ccccc23)c2ccccc21.[I-] [NK-44] | 78.5% | 193.4% | ⊚ (170% or higher was judged to be significantly stronger than NK-4 (“double circle”)) | 154.3% | strongest activity | do not show cytotoxicity | – | – | – | – | – | – | – | – | about 1.9 times
